# Assay results taken from patent US20040086942A1, “Ige receptor antagonists” (priority 2003, published 2004).
# Read-outs that look alike come from different tables or passages of the source. Where a SMILES comes first, the peptide text is derived from it. Bridges are numbered along the chain shown (N, C = ends). [ ]: non-standard residue; d: D form.
# Experiments:
# [1] = molecular target: T1, alpha subunit of the human FcεRI receptor (Homo sapiens, UniProt P12319); assay: cell-based 125I-IgE binding inhibition assay on CHO FcεRI+ cells; details: for fold reduction in inhibition/binding: truncations and alanine substitutions of IGE063
# T1 construct: expressed in transfected cells; host or cells: Chinese hamster ovary (CHO FcεRI+) cells
# T1 sequence (P12319 26-257): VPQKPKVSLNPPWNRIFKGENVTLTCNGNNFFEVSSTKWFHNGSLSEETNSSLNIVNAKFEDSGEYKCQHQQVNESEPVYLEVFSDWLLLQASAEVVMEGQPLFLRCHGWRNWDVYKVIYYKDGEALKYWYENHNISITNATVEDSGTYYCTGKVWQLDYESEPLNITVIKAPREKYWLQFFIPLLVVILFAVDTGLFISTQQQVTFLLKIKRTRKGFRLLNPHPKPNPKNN
# Experimental: . The following day the cells were rinsed three times with PBS and then once with F12/DMEM. Peptide stocks were reconstituted in 100 mM Hepes buffered water, pH 7.2, at a concentration of 5 mg/mL. Working concentrations of the peptide were diluted in assay buffer (see below). 75 ul, of a desired concentration of peptide was added to the top row of a separate 96 well microtiter plate and serially diluted 1:3 in 50 uL of the assay buffer (F12/DMEM, 1% BSA, 0.05% NaN3 and […] Hepes pH 7.2). Starting concentrations ranged from 50-500 uM. Next, 50 uL of the diluted peptide was transferred to the 96 microtiter well plate containing a monolayer of CHO FcεRI+ cells. After a 1 hour incubation at room temperature, 50 uL of ^125I-IgE (1.5 nM) was added to each well and incubated for an additional 45-60 minutes at 4° C. followed by 5 washes with 200 uL of assay buffer. Cells were solubilized with 200 uL of 1 N NaOH and transferred to a 96 microtiter tube for counting in a gamma counter to determine counts bound. The data were plotted using KaleidaGraph 3.0 and fitted using 4-parameter fits. IC50 values were determined for each peptide.
# Six peptides based on selected clones from library #516 were synthesized and assayed for the ability to inhibit the binding of ^125I-IgE to a Chinese hamster ovary cell line expressing the alpha subunit of the IgE high affinity receptor, FcεRI. The peptides were synthesized as nine residue monomers and oxidized to allow the formation of a disulfide bridge resulting in a cyclic peptide. The size of each peptide was confirmed by mass spectrometry.
# [2] = 2D NMR structural score versus reference peptide; format: physicochemical; set-up: key to Struct. Score: +++ indicates the peptide is structured similarly to IGE063 (SEQ ID NO:49); + indicates the peptide is structured similarly to IGE063 (SEQ ID NO:49), but is less stable; −/+ indicates the peptide has some elements of stable structure, but the conformation differs from the reference structure (e.g., a different turn type is evident); − indicates the peptide is predominantly unstructured in aqueous solution; key to Structure Score: +++, peptide structurally similar to reference; +, structurally similar to reference but significantly less stable; +/−, peptide has some elements of stable structure, but the conformation differs from the reference structure; −, peptide is predominantly unstructured; *peptide IGE037 (SEQ ID NO:128) was initially unstructured (monomeric form), but became structured after spontaneous dimer formation; details: for Struct. Score: reference IGE063
# Experimental: Peptides were evaluated by 2D NMR spectroscopy to assess the effect of substitutions on the three-dimensional structure of the peptide analog. All peptides with a structural score indicated in Table 5 were analyzed by 2D NMR spectroscopy; backbone ^1H resonances were assigned and ^3JHN-Hα coupling constants were measured and compared to the reference peptide (IGE063, SEQ ID NO:49; see Example 5). Peptides are defined to be of similar structure to the reference peptide provided chemical shifts, coupling constants, and NOEs are consistent with that structure.
# A structural score was assigned to peptides analyzed by 2D NMR spectroscopy. For each of these peptides, backbone ^1H resonances have been assigned, and the ^3JHN-Ha coupling constants have been measured and compared to the reference peptide (i.e., IGE134 (SEQ ID NOS:155, 171)). Peptides are defined to be of similar structure to the reference peptide provided. chemical shifts, coupling constants, and NOEs are consistent with that structure.
# [3] = inhibition of labeled IgE-binding to CHO FcεRI+ cells, read-out: Mean IC50(uM) ± S.D.
# [4] = IGE037: initially, read-out: IC50
compound,measurement,setting,value
"CSCC[C@H](NC(=O)[C@@H]1CSSC[C@H](NC(=O)[C@H](CCCNC(=N)N)NC(=O)[C@@H]2CCCN2C(=O)[C@H](CC(C)C)NC(=O)[C@H](CC(N)=O)NC(C)=O)C(=O)N[C@@H]([C@@H](C)O)C(=O)N[C@@H](CCC(=O)O)C(=O)NCC(=O)N2CCC[C@H]2C(=O)N[C@@H](Cc2c[nH]c3ccccc23)C(=O)NCC(=O)N[C@@H](Cc2c[nH]c3ccccc23)C(=O)N[C@@H](C(C)C)C(=O)N1)C(=O)N[C@@H](C)C(=O)N[C@@H](CC(=O)O)C(=O)N[C@@H](CC(=O)O)C(N)=O [IGE031, Ac-NLPRCTEGPWGWVCMADD-nh2] (Ac-NLPRCTEGPWGWVCMADD-NH2; disulfide 5-14)",IC50,[1]; [3],1.1 ± 0.7 µM
same,Struct. Score,[2],+++
"CC(=O)N[C@@H](C)C(=O)N[C@@H](CC(C)C)C(=O)N[C@H]1CSSC[C@@H](C(=O)N[C@@H](Cc2ccc(O)cc2)C(=O)N[C@H](C(N)=O)C(C)C)NC(=O)[C@H](C(C)C)NC(=O)[C@H](C)NC(=O)[C@@H]2CCCN2C1=O [IGE038, Ac-ALCPAVCYV-nh2] (Ac-ALCPAVCYV-NH2; disulfide 3-7)",IC50,[1]; [4],> 500 µM
same,Structure Score,[2]; reference IGE134,−
"CSCC[C@H](NC(=O)[C@@H]1CSSC[C@H](NC(=O)[C@H](CCCNC(=N)N)NC(=O)[C@@H]2CCCN2C(=O)[C@H](CC(C)C)NC(=O)[C@@H](N)CC(N)=O)C(=O)N[C@@H]([C@@H](C)O)C(=O)N[C@@H](CCC(=O)O)C(=O)NCC(=O)N2CCC[C@H]2C(=O)N[C@@H](Cc2c[nH]c3ccccc23)C(=O)NCC(=O)N[C@@H](Cc2c[nH]c3ccccc23)C(=O)N[C@@H](C(C)C)C(=O)N1)C(=O)O [IGE062, NLPRCTEGPWGWVCM] (H-NLPRCTEGPWGWVCM-OH; disulfide 5-14; N-terminus and C-terminus assumed)",IC50,[1]; [3],1 ± 0.6 µM
same,Struct. Score,[2],+++
"CSCC[C@H](NC(=O)[C@@H]1CSSC[C@H](NC(=O)[C@H](CCCNC(=N)N)NC(=O)[C@@H]2CCCN2C(=O)[C@H](CC(C)C)NC(=O)[C@H](CC(N)=O)NC(C)=O)C(=O)N[C@@H]([C@@H](C)O)C(=O)N[C@@H](CCC(=O)O)C(=O)NCC(=O)N2CCC[C@H]2C(=O)N[C@@H](Cc2c[nH]c3ccccc23)C(=O)NCC(=O)N[C@@H](Cc2c[nH]c3ccccc23)C(=O)N[C@@H](C(C)C)C(=O)N1)C(=O)O [IGE063, Ac-NLPRCTEGPWGWVCM] (Ac-NLPRCTEGPWGWVCM-OH; disulfide 5-14)",IC50,[1]; [4],~1 µM
same,IC50,[1]; [3],1.8 ± 0.7 µM
same,Struct. Score,[2],+++
"CSCC[C@H](NC(=O)[C@@H]1CSSC[C@H](NC(=O)[C@H](CCCNC(=N)N)NC(=O)[C@@H]2CCCN2C(=O)[C@H](CC(C)C)NC(=O)[C@@H](N)CC(N)=O)C(=O)N[C@@H]([C@@H](C)O)C(=O)N[C@@H](CCC(=O)O)C(=O)NCC(=O)N2CCC[C@H]2C(=O)N[C@@H](Cc2c[nH]c3ccccc23)C(=O)NCC(=O)N[C@@H](C)C(=O)N[C@@H](C(C)C)C(=O)N1)C(=O)O [IGE073, NLPRCTEGPWGAVCM] (H-NLPRCTEGPWGAVCM-OH; disulfide 5-14; N-terminus and C-terminus assumed)",fold reduction in inhibition/binding,[1],65 fold
same,Struct. Score,[2],+
"CSCC[C@H](NC(=O)[C@@H]1CSSC[C@H](NC(=O)[C@H](CCCNC(=N)N)NC(=O)[C@@H]2CCCN2C(=O)[C@H](CC(C)C)NC(=O)[C@@H](N)CC(N)=O)C(=O)N[C@@H]([C@@H](C)O)C(=O)N[C@@H](CCC(=O)O)C(=O)NCC(=O)N2CCC[C@H]2C(=O)N[C@@H](Cc2c[nH]c3ccccc23)C(=O)N[C@@H](C)C(=O)N[C@@H](Cc2c[nH]c3ccccc23)C(=O)N[C@@H](C(C)C)C(=O)N1)C(=O)O [IGE074, NLPRCTEGPWAWVCM] (H-NLPRCTEGPWAWVCM-OH; disulfide 5-14)",fold reduction in inhibition/binding,[1],30 fold
same,Struct. Score,[2],+
"CSCC[C@H](NC(=O)[C@@H]1CSSC[C@H](NC(=O)[C@H](CCCNC(=N)N)NC(=O)[C@@H]2CCCN2C(=O)[C@H](CC(C)C)NC(=O)[C@@H](N)CC(N)=O)C(=O)N[C@@H]([C@@H](C)O)C(=O)N[C@@H](CCC(=O)O)C(=O)N[C@@H](C)C(=O)N2CCC[C@H]2C(=O)N[C@@H](Cc2c[nH]c3ccccc23)C(=O)NCC(=O)N[C@@H](Cc2c[nH]c3ccccc23)C(=O)N[C@@H](C(C)C)C(=O)N1)C(=O)O [IGE079, NLPRCTEAPWGWVCM] (H-NLPRCTEAPWGWVCM-OH; disulfide 5-14; N-terminus and C-terminus assumed)",fold reduction in inhibition/binding,[1],256 fold
same,Struct. Score,[2],+++
"CSCC[C@H](NC(=O)[C@@H]1CSSC[C@H](NC(=O)[C@H](CCCNC(=N)N)NC(=O)[C@@H]2CCCN2C(=O)[C@H](CC(C)C)NC(=O)[C@H](CC(N)=O)NC(C)=O)C(=O)N[C@@H]([C@@H](C)O)C(=O)N[C@@H](CCC(=O)O)C(=O)NCC(=O)N2CCC[C@H]2C(=O)N[C@@H](Cc2c[nH]c3ccccc23)C(=O)N[C@H](CCC(=O)O)C(=O)N[C@@H](Cc2c[nH]c3ccccc23)C(=O)N[C@@H](C(C)C)C(=O)N1)C(=O)O [IGE114, Ac-NLPRCTEGPWeWVCM] (Ac-NLPRCTEGPW[dE]WVCM-OH; disulfide 5-14)",IC50,[1]; [3],1.7 µM
same,Struct. Score,[2],+++
Ac-NLPRCTEG(hyP)WGWVCM [IGE101],Struct. Score,[2],+++
Ac-NLPRCTEGPWGWVCM [IGE108],Struct. Score,[2],+
